For 32 compounds, IC50 results are on record in patent publication US6855843B2, “Inhibitors of α4 mediated cell adhesion” (Tanabe Seiyaku Co., Ltd., priority 1998, dated 2005).

A word on the IC50: it is the concentration needed to halve the response being measured.

Structures can show the parent of a compound that is named as a salt.

This assay concerns the target T1, α4β7 (adhesion of RPMI cells to CS-1) (Homo sapiens, UniProt P13612+P26010).
T1 construct: endogenous in cells
T1 sequence (P13612 34-1032): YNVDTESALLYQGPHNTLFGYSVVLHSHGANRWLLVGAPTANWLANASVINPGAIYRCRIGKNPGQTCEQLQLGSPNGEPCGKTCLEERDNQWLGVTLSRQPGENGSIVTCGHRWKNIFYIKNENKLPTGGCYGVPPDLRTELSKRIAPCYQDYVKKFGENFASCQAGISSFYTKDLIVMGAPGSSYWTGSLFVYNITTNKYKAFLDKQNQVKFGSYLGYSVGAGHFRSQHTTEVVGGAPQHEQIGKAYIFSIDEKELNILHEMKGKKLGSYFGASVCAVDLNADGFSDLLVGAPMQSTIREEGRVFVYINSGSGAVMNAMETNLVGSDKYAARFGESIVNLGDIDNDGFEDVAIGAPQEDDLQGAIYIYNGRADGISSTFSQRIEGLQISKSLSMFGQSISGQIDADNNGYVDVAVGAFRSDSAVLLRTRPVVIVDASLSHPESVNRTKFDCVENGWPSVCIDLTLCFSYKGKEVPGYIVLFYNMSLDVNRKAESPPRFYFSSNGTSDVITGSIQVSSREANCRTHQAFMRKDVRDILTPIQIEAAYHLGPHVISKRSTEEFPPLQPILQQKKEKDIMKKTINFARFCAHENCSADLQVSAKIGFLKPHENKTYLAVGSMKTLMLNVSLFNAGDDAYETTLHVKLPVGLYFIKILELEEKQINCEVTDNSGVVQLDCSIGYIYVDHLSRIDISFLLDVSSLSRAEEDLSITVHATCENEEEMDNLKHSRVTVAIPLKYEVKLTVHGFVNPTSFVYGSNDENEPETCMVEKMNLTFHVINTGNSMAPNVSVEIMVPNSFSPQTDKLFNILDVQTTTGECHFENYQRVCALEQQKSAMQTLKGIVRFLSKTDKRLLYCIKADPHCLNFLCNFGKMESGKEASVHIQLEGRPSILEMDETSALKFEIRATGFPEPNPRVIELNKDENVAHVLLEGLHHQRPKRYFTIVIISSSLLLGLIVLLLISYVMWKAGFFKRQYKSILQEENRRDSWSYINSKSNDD
T1 sequence (P26010 20-798): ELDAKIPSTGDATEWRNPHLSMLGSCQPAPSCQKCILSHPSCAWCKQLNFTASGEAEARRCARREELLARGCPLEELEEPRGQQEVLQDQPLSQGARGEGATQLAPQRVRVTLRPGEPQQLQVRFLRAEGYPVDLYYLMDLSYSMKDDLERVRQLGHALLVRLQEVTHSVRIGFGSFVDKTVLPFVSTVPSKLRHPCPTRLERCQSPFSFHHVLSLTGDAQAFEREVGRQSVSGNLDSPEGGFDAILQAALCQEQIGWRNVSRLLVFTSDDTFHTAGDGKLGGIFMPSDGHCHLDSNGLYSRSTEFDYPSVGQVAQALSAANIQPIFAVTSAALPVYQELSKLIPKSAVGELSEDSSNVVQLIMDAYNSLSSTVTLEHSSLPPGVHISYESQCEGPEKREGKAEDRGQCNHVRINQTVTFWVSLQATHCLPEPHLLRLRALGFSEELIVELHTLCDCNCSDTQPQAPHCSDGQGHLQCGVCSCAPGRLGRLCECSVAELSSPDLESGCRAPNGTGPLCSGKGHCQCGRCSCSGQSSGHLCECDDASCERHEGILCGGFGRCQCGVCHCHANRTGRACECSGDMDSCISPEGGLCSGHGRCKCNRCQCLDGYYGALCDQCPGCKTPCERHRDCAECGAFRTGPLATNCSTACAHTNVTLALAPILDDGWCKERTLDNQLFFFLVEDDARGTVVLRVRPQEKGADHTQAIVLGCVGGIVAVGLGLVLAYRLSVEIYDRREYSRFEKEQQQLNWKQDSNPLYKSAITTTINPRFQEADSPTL
Briefly: RPMI-CS-1 cell adhesion assay. The format is cell-based. The note with it: adhesion of RPMI B-cell line (expresses α4β7) to CS-1 peptide coated microwells; read-out: RPMI-CS-1 IC50 value range.
Consider `CCOc1cccc(OCC)c1-c1ccc(C[C@H](NC(=O)c2c(Cl)cccc2Cl)C(=O)O)cc1` [Example 13, N-(2,6-Dichlorobenzoyl)-4-(2,6-diethoxyphenyl)-L-phenylalanine], for which the IC50 is under 300 nM.
Take `CCOC(=O)[C@H](Cc1ccc(-c2c(OC)cc(CN3CCN(C)CC3)cc2OC)cc1)NC(=O)c1c(F)cccc1F` [Example 356]: the IC50 is under 300 nM.
The same measure for `COc1ccccc1-c1ccc(C[C@H](NC(=O)c2cc(NS(=O)(=O)C(F)(F)F)ccc2Cl)C(=O)O)cc1` [Example 180, N-[2-Chloro-5-[(trifluoromethanesulfonyl)amino]-benzoyl]-4-(2-methoxyphenyl)-L-phenylalanine]: under 300 nM; for `COc1cccc(OC)c1-c1ccc(C[C@H](NC(=O)c2ccc(OC(C)C)cc2Cl)C(=O)O)cc1` [Example 285]: under 300 nM.
Then `COc1cc(Cl)cc(OC)c1-c1ccc(C[C@H](NC(=O)c2c(Cl)cccc2Cl)C(=O)O)cc1` [Example 12, N-(2,6-Dichlorobenzoyl)-4-(4-chloro-2,6-dimethoxyphenyl)-L-phenylalanine], with under 300 nM; and `CC(=O)Nc1ccccc1-c1ccc(C[C@H](NC(=O)c2c(Cl)cccc2Cl)C(=O)O)cc1` [Example 25], with 300 to 1000 nM; and `COc1cccc(OC)c1-c1ccc(C[C@H](NC(=O)c2c(Cl)cc(-c3c(C)noc3C)cc2Cl)C(=O)O)cc1` [Example 309], with under 300 nM.
Take `COc1ccccc1-c1ccc(C[C@H](NC(=O)c2ccc(-n3cccc3CO)cc2Cl)C(=O)O)cc1` [Example 291, N-[2-Chloro-4-(2-hydroxymethyl-1-pyrrolyl)benzoyl]-4-(2-methoxyphenyl)-L-phenylalanine]: the IC50 lay within 1000 to 5000 nM.
Then `N#CCOc1ccc2c(c1-c1ccc(C[C@H](NC(=O)c3c(Cl)cccc3Cl)C(=O)O)cc1)OCO2` [Example 239, N-(2,6-Dichlorobenzoyl)-4-[2,3-methylenedioxy-6-(cyanomethoxy)phenyl]-L-phenylalanine], with under 300 nM; and `COc1ccc(-c2ccc(C[C@H](NC(=O)c3ccc(C(=O)O)cc3)C(=O)O)cc2)cc1` [Example 76], with over 5000 nM.
Turning to `COc1cccc(OC)c1-c1ccc(C[C@H](NC(=O)c2c(Cl)cccc2Cl)C(=O)OC(C)C)cc1` [Example 275, N-(2,6-Dichlorobenzoyl)-4-(2,6-dimethoxyphenyl)-L-phenylalanine i-propyl ester], the IC50 is over 5000 nM.
`COc1ccccc1-c1ccc(C[C@H](NC(=O)c2ccc(NC(=O)c3c(Cl)cccc3Cl)cc2)C(=O)O)cc1` [Example 107]: the IC50 was 1000 to 5000 nM.
With `COc1ccc(OC)c(-c2ccc(C[C@H](NC(=O)c3c(Cl)cccc3Cl)C(=O)O)cc2)c1OC` [Example 10, N-(2,6-Dichlorobenzoyl)-4-(2,3,6-trimethoxyphenyl)-L-phenylalanine], the IC50 is under 300 nM.
Consider `COc1ccccc1-c1ccc(C[C@H](NC(=O)c2ccc(O)cc2Cl)C(=O)O)cc1` [Example 209], for which the IC50 was under 300 nM.
Then `COc1ccccc1-c1ccc(C[C@H](NC(=O)c2ccc(NC(C)=O)cc2Cl)C(=O)O)cc1` [Example 67, N-[2-Chloro-4-(acetylamino)benzoyl]-4-(2-methoxyphenyl)-L-phenylalanine], with 300 to 1000 nM.
On to `COc1ccccc1-c1ccc(C[C@H](NC(=O)c2ccc(NC(=S)NCc3ccccc3)cc2Cl)C(=O)O)cc1` [Example 194, N-[4-(3-Benzylthioureido)-2-chlorobenzoyl]-4-(2-methoxyphenyl)-L-phenylalanine], for which the IC50 was 1000 to 5000 nM.
For the compound `CC(C)(C)OC(=O)Nc1ccccc1-c1ccc(C[C@H](NC(=O)c2c(Cl)cccc2Cl)C(=O)O)cc1` [Example 22, N-(2,6-Dichlorobenzoyl)-4-[2-(tertbutoxycarbonylamino)phenyl]-L-phenylalanine], the IC50 fell in the range of 1000 to 5000 nM.
In the case of `COc1ccccc1-c1ccc(C[C@H](NC(=O)c2ccccc2Br)C(=O)O)cc1` [Example 96], the IC50 was in the range of 300 to 1000 nM.
In the case of “N-(2,6-Dichlorobenzoyl)-4-(2,6-dimethoxyphenyl)-L-phenylalanine 2-(dimethylamino)ethyl ester [Example 271]”, the IC50 was under 300 nM.
With `COCc1ccccc1-c1ccc(C[C@H](NC(=O)c2c(Cl)cccc2Cl)C(=O)O)cc1` [Example 51, N-(2,6-Dichlorobenzoyl)-4-[2-(methoxymethyl)phenyl]-L-phenylalanine], the IC50 is 300 to 1000 nM.
For `CCOC(=O)[C@H](Cc1ccc(-c2c(OC)cc(CN(C)C)cc2OC)cc1)NC(=O)c1c(Cl)cccc1Cl` [Example 259, N-(2,6-Dichlorobenzoyl)-4-[2,6-dimethoxy-4-[(N,N-dimethylamino)methyl]phenyl]-L-phenylalanine ethyl ester hydrochloride], the IC50 was under 300 nM.
As for `O=C(NCc1ccccc1)c1ccccc1-c1ccc(C[C@H](NC(=O)c2c(Cl)cccc2Cl)C(=O)O)cc1` [Example 53, N-(2,6-Dichlorobenzoyl)-4-[2-(N-benzylcarbamoyl)phenyl]-L-phenylalanine], the IC50 fell in the range of 1000 to 5000 nM.
Then `COC(=O)[C@H](Cc1ccc(-c2c(OC)cccc2OC)cc1)NC(=O)c1c(Cl)cccc1Cl` [Example 7A, N-(2,6-Dichlorobenzoyl)-4-(2,6-dimethoxyphenyl)-L-phenylalanine methyl ester], with under 300 nM.
For `COc1cccc(OC)c1-c1ccc(C[C@H](NC(=O)c2c(Cl)cccc2Cl)C(=O)NO)cc1` [Example 268, N-(2,6-dichlorobenzoyl)-4-(2,6-dimethoxyphenyl)-L-phenylalanine N-hydroxyamide], the IC50 fell in the range of 1000 to 5000 nM.
Then `COc1ccc(-c2ccc(C[C@H](NC(=O)c3c(Cl)cccc3Cl)C(=O)O)cc2)c(OC)c1` [Example 9, N-(2,6-Dichlorobenzoyl)-4-(2,4-dimethoxyphenyl)-L-phenylalanine], with under 300 nM; and `O=C(N[C@@H](Cc1ccc(-c2ccccc2CO)cc1)C(=O)O)c1c(Cl)cccc1Cl` [Example 50, N-(2,6-Dichlorobenzoyl)-4-[2-(hydroxymethyl)phenyl]-L-phenylalanine], with under 300 nM.
As to `COc1cccc(OC)c1-c1ccc(C[C@H](NC(=O)c2c(F)cc(F)cc2F)C(=O)O)cc1` [Example 279], the IC50 is under 300 nM.
`COc1ccccc1-c1ccc(C[C@H](NC(=O)c2ccc(NS(=O)(=O)c3ccc(F)cc3)cc2Cl)C(=O)O)cc1` [Example 189, N-[2-Chloro-4-[[(4-fluorophenyl)sulfonyl]amino]benzoyl]-4-(2-methoxyphenyl)-L-phenylalanine]: the IC50 was under 300 nM.
Then `COc1c(F)cc2c(c1-c1ccc(C[C@H](NC(=O)c3c(Cl)cccc3Cl)C(=O)O)cc1)OCO2` [Example 154, N-(2,6-Dichlorobenzoyl)-4-(2,3-methylenedioxy-5-fluoro-6-methoxyphenyl)-L-phenylalanine], with under 300 nM.
The same measure for `CS(=O)(=O)Nc1cccc(-c2ccc(C[C@H](NC(=O)c3c(Cl)cccc3Cl)C(=O)O)cc2)c1` [Example 123]: 1000 to 5000 nM; for `COC(=O)Nc1ccccc1-c1ccc(C[C@H](NC(=O)c2c(Cl)cccc2Cl)C(=O)O)cc1` [Example 26, N-(2,6-Dichlorobenzoyl)-4-[2-(methoxycarbonylamino)phenyl]-L-phenylalanine]: 300 to 1000 nM.
Take `CC(C)(C)NS(=O)(=O)c1ccccc1-c1ccc(C[C@H](NC(=O)c2c(Cl)cccc2Cl)C(=O)O)cc1` [Example 16, N-(2,6-Dichlorobenzoyl)-4-[2-[N-(tert-butyl)sulfamoyl]phenyl]-L-phenylalanine]: the IC50 is under 300 nM.
